Data on 12 compounds can be found in PMC8310135 (Viruses, 2021).

One data set has as its system wt LUJV. The data set is classed as cell-based, Lujo virus.
A short description of another data set: in vitro. Conditions: human; for CC50: CC50 (50% cell cytotoxicity concentration).
The test system of a further data set is rLUJV/ZsG. Description: microbe, parasite or virus in culture. The data set is classed as cell-based, Lujo virus. The following applies: for activity at 0.05 µM / activity at 0.5 µM / activity at 5 µM: Huh-7, read-out: Relative ZsG (%) Mean; for activity at 0.05 µM: 50 nM; for activity at 0.5 µM: 500 nM; for activity at 5 µM: 5000 nM.
Another data set deals with Huh7 cells. Conditions: human.
In data set [1] the test system is LASV. Conditions: read-out: EC50 for LASV inhibition; cited from earlier work.
Data set [2] relates to JUNV. The following applies: read-out: EC50 reported for JUNV; cited from earlier work.
Data set [3] concerns LASV. Conditions: read-out: EC50 reported for LASV; cited from earlier work.
The test system of data set [4] is JUNV. Conditions: cited from earlier work.
Data set [5] relates to LASV. The following applies: read-out: EC50 against LASV; cited from earlier work.
In the next data set the test system is LUJV. The following applies: cited from earlier work.
Setting [6] is: Mammarenavirus lujoense, Huh-7, read-out: EC50 (concentration inhibiting ZsG expression by 50%).
[7] abbreviates: read-out: EC50 (concentration inhibiting ZsG expression by 50%).

Counter-ions that a name gives are not always drawn. Like-named read-outs stand apart in the source and are kept apart here.

`Nc1ccn([C@@H]2O[C@H](CO)[C@@H](O)[C@H]2F)c(=O)n1` [2′-deoxy-2′-fluorocytidine (2-dFC), 2′-deoxy-2′-fluorocytidine]: the “reduction of wt LUJV viral titers” value in the data set with wt LUJV is “approximately 4 logs”. For the same compound, in “in vitro”, the viability is greater than 75%, the viability at 0.05 µM was determined as 117%, the viability at 0.5 µM is 98% and the viability at 5 µM came to 105%. The compound further came in with a CC50 in “in vitro” greater than 50000 nM. For the same compound, the EC50 in the data set with rLUJV/ZsG (setting [6]) came to 540 ± 210 nM. In the data set with rLUJV/ZsG (Mammarenavirus lujoense), the activity at 0.05 µM is 90%, the activity at 0.5 µM turned out to be 27% and the activity at 5 µM came out at 2%. In addition, the EC50 in the data set with rLUJV/ZsG (setting [7]) was 533 ± 205 nM.
For `O=C(Nc1ccc([N+](=O)[O-])cc1Cl)c1cc(Cl)ccc1O` [Niclosamide], the 50% cytotoxic concentration (CC50) in the data set with Huh7 cells came to 272 ± 34 nM. Also, in the data set on LASV [1], the EC50 is 80 nM. In the data set “in vitro”, the viability at 0.05 µM worked out at 77%, the viability at 0.5 µM stood at 2%, the viability at 5 µM was 1% and the CC50 turned out to be 270 nM. In addition, the “SI (selectivity index, CC50 divided by EC50)” value in the data set with rLUJV/ZsG worked out at 3.2. For the same compound, the EC50 in the data set on rLUJV/ZsG (setting [6]) is 90 nM. Also, in the data set with rLUJV/ZsG (Mammarenavirus lujoense), the activity at 0.05 µM was 30%, the activity at 0.5 µM worked out at 2% and the activity at 5 µM was found to be 2%. For the same compound, the EC50 in the data set on rLUJV/ZsG (setting [7]) is 85 ± 29 nM.
Take `O=C(NCCCNc1nc(Nc2cccc(NC(=O)N3CCCC3)c2)ncc1I)c1cccs1` [BX-795]: in the data set on wt LUJV, the “reduction of wt LUJV viral titers” value is listed as “approximately 4 logs”. The compound further came in with a CC50 with Huh7 cells of 9910 ± 1090 nM. In addition, in the data set “in vitro”, the viability is greater than 75%, the viability at 0.05 µM worked out at 128%, the viability at 0.5 µM amounted to 105% and the viability at 5 µM came to 60%. The 50% cytotoxic concentration (CC50) in “in vitro” was 9910 ± 1090 nM. Further, in the data set on rLUJV/ZsG (setting [6]), the EC50 was 600 ± 270 nM. In the data set on rLUJV/ZsG (Mammarenavirus lujoense), the activity at 0.05 µM amounted to 80%, the activity at 0.5 µM was 41% and the activity at 5 µM was 9%. Further, in the data set on rLUJV/ZsG (setting [7]), the EC50 was determined as 598 ± 274 nM.
On to `NC(=O)c1ncn([C@@H]2O[C@H](CO)[C@@H](O)[C@H]2O)n1` [Ribavirin], for which the EC50 in the data set on JUNV [2] is 18300 nM. In addition, the EC50 in the data set on LASV [3] is 2470 nM. Besides, in the data set “in vitro”, the viability at 0.05 µM was found to be 124%, the viability at 0.5 µM was determined as 122%, the viability at 5 µM stood at 133% and the CC50 was greater than 50000 nM. In addition, the EC50 with rLUJV/ZsG (setting [6]) came to 11100 ± 1400 nM. In the data set on rLUJV/ZsG (Mammarenavirus lujoense), the activity at 0.05 µM was 94%, the activity at 0.5 µM was 73% and the activity at 5 µM is 63%.
As for `NC(=O)c1nc(F)c[nH]c1=O` [Favipiravir (T-705), Favipiravir], the “reduction of wt LUJV viral titers” value in the data set on wt LUJV is “approximately 4 logs”. In addition, in the data set “in vitro”, the viability was greater than 75%, the viability at 0.05 µM turned out to be 101%, the viability at 0.5 µM turned out to be 104% and the viability at 5 µM turned out to be 96%. This compound also gave a CC50 in “in vitro” greater than 50000 nM. In addition, the EC50 in the data set with rLUJV/ZsG (setting [6]) was found to be 2950 ± 690 nM. In the data set on rLUJV/ZsG (Mammarenavirus lujoense), the activity at 0.05 µM came to 94%, the activity at 0.5 µM was found to be 95% and the activity at 5 µM was 22%. Besides, the EC50 in the data set on rLUJV/ZsG (setting [7]) worked out at 2950 ± 693 nM.
With `NCC(=O)Nc1ccc(-n2nc(C(F)(F)F)cc2-c2ccc3c(ccc4ccccc43)c2)cc1` [AR-12], half-maximal cytotoxicity with Huh7 cells (CC50) was put at 5520 ± 1670 nM. For the same compound, in the data set “in vitro”, the viability at 0.05 µM is 129%, the viability at 0.5 µM amounted to 115%, the viability at 5 µM amounted to 1% and it took 5500 ± 1700 nM to reach half-maximal cytotoxicity (CC50). Also, in the data set with rLUJV/ZsG, the “SI (selectivity index, CC50 divided by EC50)” value was 4.5. Besides, in the data set on rLUJV/ZsG (setting [6]), the EC50 stood at 1200 nM. In addition, in the data set on rLUJV/ZsG (Mammarenavirus lujoense), the activity at 0.05 µM came to 74%, the activity at 0.5 µM came to 54% and the activity at 5 µM turned out to be 2%. Moreover, in the data set on rLUJV/ZsG (setting [7]), the EC50 turned out to be 1220 ± 444 nM.
In turn, `O=C(c1ccc(OCCN2CCCCC2)cc1)c1c(-c2ccc(O)cc2)sc2cc(O)ccc12` [Raloxifene (Evista), Raloxifene] showed a CC50 with Huh7 cells of 9300 ± 1310 nM. In addition, in the data set “in vitro”, the viability at 0.05 µM is 139%, the viability at 0.5 µM is 136%, the viability at 5 µM was determined as 86% and the CC50 is 9300 ± 1300 nM. Also, the “SI (selectivity index, CC50 divided by EC50)” value with rLUJV/ZsG is reported as 6.2. Moreover, the EC50 in the data set with rLUJV/ZsG (setting [6]) came out at 1500 ± 793 nM. Further, in the data set on rLUJV/ZsG (Mammarenavirus lujoense), the activity at 0.05 µM was 87%, the activity at 0.5 µM was determined as 89% and the activity at 5 µM was found to be 3%.
On to `CC/C(=C(\c1ccccc1)c1ccc(OCCN(C)C)cc1)c1ccccc1` [Tamoxifene citrate], for which half-maximal cytotoxicity in the data set with Huh7 cells (CC50) was put at 7370 ± 1040 nM. Further, in the data set “in vitro”, the viability at 0.05 µM turned out to be 123%, the viability at 0.5 µM is 123%, the viability at 5 µM came out at 85% and half-maximal cytotoxicity (CC50) was put at 7370 ± 1040 nM. Moreover, the “SI (selectivity index, CC50 divided by EC50)” value in the data set on rLUJV/ZsG was found to be 2.1. Also, the EC50 in the data set on rLUJV/ZsG (setting [6]) amounted to 3590 ± 720 nM. In the data set on rLUJV/ZsG (Mammarenavirus lujoense), the activity at 0.05 µM amounted to 84%, the activity at 0.5 µM is 78% and the activity at 5 µM was determined as 2%. Further, the EC50 in the data set on rLUJV/ZsG (setting [7]) was 3590 ± 724 nM.
For the compound `CC[C@H](CC#N)OC(=O)N[C@@H](C)c1cccc(NC(=O)Nc2ccc(-c3cnco3)c(OC)c2)c1` [AVN-944], in the data set with wt LUJV, the “reduction of wt LUJV viral titers” value is recorded as “approximately 4 logs”. Further, the “reduction of JUNV titers” value in the data set on JUNV [4] is greater than 90%. In “in vitro”, the viability was greater than 75%, the viability at 0.05 µM turned out to be 103%, the viability at 0.5 µM was determined as 97% and the viability at 5 µM worked out at 64%. The compound further returned a CC50 in “in vitro” greater than 12500 nM. Also, the EC50 in the data set with rLUJV/ZsG (setting [6]) was found to be 200 ± 90 nM. Moreover, in the data set on rLUJV/ZsG (Mammarenavirus lujoense), the activity at 0.05 µM amounted to 43%, the activity at 0.5 µM was determined as 4% and the activity at 5 µM came to 1%. Besides, the EC50 in the data set with rLUJV/ZsG (setting [7]) came to 201 ± 89 nM.
As to `Cc1cccc(/C=N/Nc2cc(N3CCOCC3)nc(OCCc3ccccn3)n2)c1` [Apilimod], in the data set with wt LUJV, the “reduction of wt LUJV viral titers” value is given as “approximately 4 logs”. For the same compound, the EC50 with LASV [1] was 50 nM. Also, in “in vitro”, the viability was greater than 75%, the viability at 0.05 µM was determined as 130%, the viability at 0.5 µM was found to be 115% and the viability at 5 µM amounted to 80%. In the data set “in vitro”, this compound displayed a cytotoxic concentration (CC50) of 14400 ± 3240 nM. The EC50 with rLUJV/ZsG (setting [6]) is 1440 ± 600 nM. Besides, in the data set with rLUJV/ZsG (Mammarenavirus lujoense), the activity at 0.05 µM stood at 91%, the activity at 0.5 µM amounted to 45% and the activity at 5 µM was determined as 24%. The EC50 in the data set on rLUJV/ZsG (setting [7]) was determined as 1440 ± 637 nM.
As to `Cc1c(-c2ccc(-c3ccccc3F)cc2)nc2ccc(F)cc2c1C(=O)O` [Brequinar], the “reduction of wt LUJV viral titers” value in the data set on wt LUJV is “approximately 4 logs”. Also, in the data set “in vitro”, the viability is greater than 75%, the viability at 0.05 µM worked out at 113%, the viability at 0.5 µM was 85% and the viability at 5 µM turned out to be 67%. Also, the CC50 in the data set “in vitro” was greater than 12500 nM. The EC50 in the data set on rLUJV/ZsG (setting [6]) came to 110 ± 20 nM. In the data set on rLUJV/ZsG (Mammarenavirus lujoense), the activity at 0.05 µM is 27%, the activity at 0.5 µM came out at 2% and the activity at 5 µM was 2%. Besides, the EC50 in the data set with rLUJV/ZsG (setting [7]) stood at 109 ± 15 nM.
Consider `C[C@@H](c1nc(-c2ccc(C#N)cc2)cs1)[C@](O)(Cn1cncn1)c1cc(F)ccc1F` [Isavucanazole], for which the EC50 in the data set on LASV [5] was 1200 nM. In addition, in the data set “in vitro”, the viability at 0.05 µM is 114%, the viability at 0.5 µM is 121%, the viability at 5 µM was 75% and the 50% cytotoxic concentration (CC50) is 12700 ± 3970 nM. Moreover, the “inhibition of LUJV” value with LUJV is “did not inhibit”. Besides, the “SI (selectivity index, CC50 divided by EC50)” value in the data set on rLUJV/ZsG came out at 2.1. Besides, the EC50 in the data set with rLUJV/ZsG (setting [6]) stood at 6100 ± 900 nM. Also, in the data set with rLUJV/ZsG (Mammarenavirus lujoense), the activity at 0.05 µM was 73%, the activity at 0.5 µM came to 75% and the activity at 5 µM was determined as 34%. Moreover, in the data set with rLUJV/ZsG (setting [7]), the EC50 was determined as 6110 ± 926 nM.

Broadly, the viability is a read-out of living cells in per cent, often relative to untreated cells. What is called CC50 is the concentration giving 50% cytotoxicity. Read a low CC50 as harm at low concentration.
